Data reported in paper PMC7619385 (ACS infectious diseases, 2025).
Like-named read-outs stand apart in the source and are kept apart here.

Tests used:
LmxCLK1 = biological target: T1, LmxCLK1 (Leishmania mexicana, UniProt E9AMP2); test: biochemical; type: binding
T1 sequence (E9AMP2 1-422): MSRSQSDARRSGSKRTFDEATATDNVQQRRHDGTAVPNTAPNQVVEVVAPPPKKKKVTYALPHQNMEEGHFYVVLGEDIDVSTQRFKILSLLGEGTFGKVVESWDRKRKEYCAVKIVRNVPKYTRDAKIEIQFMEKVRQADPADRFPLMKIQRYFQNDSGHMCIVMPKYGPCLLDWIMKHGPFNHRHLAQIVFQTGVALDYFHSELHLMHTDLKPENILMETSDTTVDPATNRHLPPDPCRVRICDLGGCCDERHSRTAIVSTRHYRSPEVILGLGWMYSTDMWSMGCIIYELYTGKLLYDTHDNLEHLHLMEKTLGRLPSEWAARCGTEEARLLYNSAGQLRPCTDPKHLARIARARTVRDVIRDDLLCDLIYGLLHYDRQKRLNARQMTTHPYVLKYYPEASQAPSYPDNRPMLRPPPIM

NLuc::LmxCLK1 = NLuc::LmxCLK1 (Leishmania mexicana, UniProt E9AMP2); test: cell-based; type: cell-based; conditions: for Target occupancy Run 1 / Target occupancy Run 2 / Target occupancy Average: 10 µM compound, tracer SV366, promastigotes; for Target occupancy Average: mean of two experiments
Method: All compounds were tested at a fixed concentration of 10 µM to enable direct comparison of their target occupancy in live cells.
Serially diluted probes (5 µL) were added to 85 µL of cells in culture media or 85 µL of purified protein. Final well volumes were adjusted to 100 µL with sterile Opti-MEM™ I Reduced Serum Medium (Thermo-Scientific) – for wells containing cells; or Kinase Buffer - for wells containing purified protein. For tracer displacement assays, samples were prepared as above, but final volume was brought to 100 µL by addition of vehicle or serially-diluted test compounds. Final DMSO concentration in these assays was 1%. […] Light emissions at 460+10 nm (BRET donor) and at 610+20 nm (BRET acceptor) were sequentially recorded (integration time = 0.5 s, gain = 3600) using a luminometer (BMG LABTECH Clariostar or Biotek Synergy HT). BRET values are reported in milli-BRET (mBRET) units (mBU), obtained by dividing the acceptor luminescence by the donor luminescence and multiplying the result by a factor of 1,000. BRET values were converted to blank-corrected probe occupancies (%) according to equation [1]: (1) Probeoccupancy(%)=X−Z/Y−Z×100 where X = mBRET value in the presence of the test compound and the probe, Y = mBRET value in the presence of probe only, and Z = mBRET value in the absence of probe and test compound. […]

[1] = DSF, 10 µM compound, 2 µM LmxCLK1, Run 1
[2] = DSF, 10 µM compound, 2 µM LmxCLK1, Run 2
[3] = DSF, 10 µM compound, 2 µM LmxCLK1, mean of two runs
[4] = DSF, 10 µM compound, 2 µM LmxCLK1, Run 1, read-out: ΔTm Run 1
[5] = DSF, 10 µM compound, 2 µM LmxCLK1, Run 2, read-out: ΔTm Run 2
[6] = DSF, 10 µM compound, 2 µM LmxCLK1, mean of two runs, read-out: ΔTm Average
[7] = read-out: Target occupancy Average
[8] = read-out: Target occupancy Run 1
[9] = read-out: Target occupancy Run 2

| SMILES | ΔTm Run 1 (LmxCLK1; [1]) | ΔTm Run 2 (LmxCLK1; [2]) | ΔTm Average (LmxCLK1; [3]) | Target occupancy Run 1 (NLuc::LmxCLK1) | Target occupancy Run 2 (NLuc::LmxCLK1) | Target occupancy Average (NLuc::LmxCLK1) | ΔTm at 10 µM (LmxCLK1; [4]) | ΔTm at 10 µM (LmxCLK1; [5]) | ΔTm at 10 µM (LmxCLK1; [6]) | receptor occupancy at 10 µM (NLuc::LmxCLK1; [7]) | receptor occupancy at 10 µM (NLuc::LmxCLK1; [8]) | receptor occupancy at 10 µM (NLuc::LmxCLK1; [9]) | ΔTm Average (LmxCLK1) | ΔTm Run 1 (LmxCLK1) | ΔTm Run 2 (LmxCLK1) |
| --- | --- | --- | --- | --- | --- | --- | --- | --- | --- | --- | --- | --- | --- | --- | --- |
| O=c1cc(-c2cccc3c2Sc2ccccc2S3)oc(N2CCOCC2)c1 [KU-55933 (ATM Kinase Inhibitor)] | 0.6 °C | 0.2 °C | 0.4 °C | 4.0% | -21.9% | -9.0% |  |  |  |  |  |  |  |  |  |
| O=C(O)[C@]1(Cc2cccc(Nc3nccs3)n2)CC[C@@H](Oc2cccc(Cl)c2F)CC1 [MK-5108 (VX-689)] | -0.1 °C | -0.2 °C | -0.1 °C | -2.8% | 1.0% | -0.9% |  |  |  |  |  |  |  |  |  |
| CCOc1cc2ncc(C#N)c(Nc3ccc(F)c(Cl)c3)c2cc1NC(=O)/C=C/CN(C)C [Pelitinib (EKB-569), Pelitinib] |  |  |  |  |  | negligible target engagement | 9.1 °C | 12.5 °C | 10.8 ± 1.7 °C |  |  |  |  |  |  |
| O=C(NOCC1CC1)c1ccc(F)c(F)c1Nc1ccc(I)cc1Cl [PD184352 (CI-1040)] | 0.1 °C | 0.1 °C | 0.1 °C | -2.3% | -19.9% | -11.1% |  |  |  |  |  |  |  |  |  |
| Cc1ccc2nc(NCCN)c3ncc(C)n3c2c1 [BMS-345541] |  |  |  |  |  |  | -0.1 °C | -0.3 °C | -0.2 °C | -1.1% | 7.2% | -9.4% |  |  |  |
| CC[C@H](Nc1ncnc2[nH]cnc12)c1nc2cccc(F)c2c(=O)n1-c1ccccc1 [CAL-101 (Idelalisib)] | -0.2 °C | -0.2 °C | -0.2 °C | 0.2% | 0.1% | 0.1% |  |  |  |  |  |  |  |  |  |
| N#C/C(=C/c1ccc(O)c(O)c1)C(=O)NCc1ccccc1 [AG-490 (Tyrphostin B42)] | 0.1 °C | 0.2 °C | 0.1 °C | -25.0% | -10.6% | -17.8% |  |  |  |  |  |  |  |  |  |
| COc1cc(Nc2ncc(F)c(Nc3ccc4c(n3)NC(=O)C(C)(C)O4)n2)cc(OC)c1OC [R406] |  |  |  | 6.2% | -5.8% | 0.2% |  |  |  |  |  |  | 0.4 °C | 0.4 °C | 0.3 °C |
| NC(=O)Nc1sc(-c2ccc(F)cc2)cc1C(N)=O [TPCA-1] | 0.1 °C | 0.2 °C | 0.2 °C | 1.2% | -7.6% | -3.2% |  |  |  |  |  |  |  |  |  |
| O=C1NC(=O)C(=Cc2ccc(-c3ccc(F)cc3)o2)S1 [CAY10505] | 0.1 °C | -0.1 °C | 0.0 °C | -12.3% | 10.0% | -1.2% |  |  |  |  |  |  |  |  |  |
| CN(C[C@@H]1COCCO1)S(=O)(=O)Nc1ccc2ccc3ncc(-c4cnn(C)c4)cc3c(=O)c2c1 [MK-2461] |  |  |  |  |  |  | 0 °C | 0.2 °C | 0.1 °C | -2.7% | -9.3% | 3.8% |  |  |  |
| Cc1[nH]c2ccccc2c1C1=C(NCCc2ccc(F)cc2)C(=O)N(C)C1=O [IM-12] |  |  |  | -0.3% | -14.5% | -7.4% |  |  |  |  |  |  | -0.2 | -0.2 | -0.3 |
| Cc1c(Cn2c(C)nc3c(C(=O)O)cc(N4CCOCC4)cc32)cccc1C(F)(F)F [GSK2636771] |  |  |  |  |  |  | 0.2 °C | 0.1 °C | 0.1 °C | -2.2% | 2.9% | -7.3% |  |  |  |
| O=C(/C=C/c1ccc2ccccc2n1)c1ccncc1 [PFK15] |  |  |  | -10.7% | -9.2% | -10.0% |  |  |  |  |  |  | 0.1 °C | 0.2 °C | 0.1 °C |
| N[C@@H]1CCCN(c2c(/C=C3\SC(=O)NC3=O)cccc2-c2ccccc2)C1 [AZD1208] | 0.1 °C | -0.4 °C | -0.1 °C | 5.0% | -7.9% | -1.4% |  |  |  |  |  |  |  |  |  |
| O=C1c2ccc(Nc3ccc(F)cc3F)cc2CCc2ccc(OC[C@H](O)CO)cc21 [Skepinone-L] |  |  |  |  |  |  | 0 °C | 0.1 °C | 0.1 °C | -1.4% | 6.5% | -9.2% |  |  |  |
| C[C@H](NC(=O)/C(C#N)=C/c1cccc(Br)n1)c1ccccc1 [WP1066] |  |  |  |  |  |  | 0.1 °C | 0 °C | 0 °C | -7.5% | 3.4% | -18.3% |  |  |  |
| NC(=O)c1cccc(-c2cc(Nc3ccc(OC(F)(F)F)cc3)ncn2)c1 [GNF-2] |  |  |  | -8.5% | -14.2% | -11.3% |  |  |  |  |  |  | -0.2 | -0.2 | -0.3 |
| CN(C)Cc1cccc(N/C(=C2\C(=O)Nc3cc(C(N)=O)ccc32)c2ccccc2)c1 [BIX 02188] |  |  |  |  |  |  | 0.1 °C | -0.2 °C | 0 °C | -6.5% | 4.1% | -17% |  |  |  |
| CC(C)(C)c1nc(-c2cccc(NS(=O)(=O)c3c(F)cccc3F)c2F)c(-c2ccnc(N)n2)s1 [Dabrafenib (GSK2118436)] | -0.2 °C | 0.0 °C | -0.1 °C | 0.7% | -7.9% | -3.6% |  |  |  |  |  |  |  |  |  |
| C#Cc1cccc(Nc2ncnc3cc(OCCOC)c(OCCOC)cc23)c1.Cl [Erlotinib HCl (OSI-744)] | 0.1 °C | 0.1 °C | 0.1 °C | -0.1% | -7.3% | -3.7% |  |  |  |  |  |  |  |  |  |
| COc1cc(Nc2ncc(F)c(Nc3ccc4c(n3)N(COP(=O)(O)O)C(=O)C(C)(C)O4)n2)cc(OC)c1OC [Fostamatinib (R788)] | 0.2 °C | 0.2 °C | 0.2 °C | 0.9% | -17.9% | -8.5% |  |  |  |  |  |  |  |  |  |
| C=CS(=O)(=O)NC1CCN(C(=O)CNc2cc(I)c(Cl)cc2OC)CC1 [K-Ras(G12C) inhibitor 9] | 0.3 °C | -0.6 °C | -0.1 °C | -21.1% | -10.0% | -15.5% |  |  |  |  |  |  |  |  |  |
| CCN1/C(=C/C(C)=O)Sc2ccc(OC)cc21 [TG003] | 1.4 °C | 1.2 °C | 1.3 °C | 10.1% | -15.2% | -2.5% |  |  |  |  |  |  |  |  |  |
| Cn1cc(C2=C(c3cn(C4CCN(Cc5ccccn5)CC4)c4ccccc34)C(=O)NC2=O)c2ccccc21 [Enzastaurin (LY317615)] | 0.1 °C | -0.2 °C | 0.0 °C | 2.6% | -1.9% | 0.3% |  |  |  |  |  |  |  |  |  |
